The record followed here is paper PMC6359713, “A Novel Dipeptidyl Peptidase IV Inhibitory Tea Peptide Improves Pancreatic β-Cell Function and Reduces α-Cell Proliferation in Streptozotocin-Induced Diabetic Mice” (International Journal of Molecular Sciences, 2019).

A short description of assay [1]: Blood GLP-1 in STZ-induced hyperglycemic mice. Conditions: gavage daily; for GLP-1 concentration vs STZ control, significance / GLP-1 concentration in blood: day 57; for GLP-1 concentration in blood: peptide II 400 mg/kg (n = 7) or sitagliptin 4 mg/kg (n = 6), mouse ELISA, STZ control 9.85 ± 1.96, normal control 15.52 ± 3.17 pmol/L, mean ± SD; for Increase in GLP-1 concentration vs STZ control: peptide II 400 mg/kg or sitagliptin 4 mg/kg, after 57 days. The class given is in vivo, mouse (male ICR). The method, then: (§1) Male ICR mice at the age of four weeks were obtained from the Laboratory Animal Center of Zhejiang University (Hangzhou, China) and housed under a 12 h light/dark cycle with free access to food and water. The animal protocol was approved by the Committee on the Ethics of Animal Experiments of Zhejiang University (Permit Number: SYXK 2018-0001, 3 January 2018), and all experiments were performed in accordance with Zhejiang University Laboratory Animal Center Guidelines and the Regulations for Laboratory Animals Care and Usage. The mice were divided into four groups: non-STZ, STZ, STZ plus sitagliptin, and STZ plus peptide II. The mice were injected with STZ (50 mg/kg) dissolved into sodium citrate buffer (pH 4.5) for three successive days to induce hyperglycemia. Every group contained 10 mice. […] The levels of HbA1c were measured using an automatic analyzer MQ-2000pt produced by Medconn Medical Technology Co. (Shanghai, China). Plasma insulin, glucagon, GLP-1, and DPP-IV concentrations were measured using a mouse ELISA kit (Shanghai Lengton Bioscience Co., Ltd., Shanghai, China).
Background: An ELISA detects its analyte on a solid surface through an enzyme-linked reagent.

Another assay concerns pancreatic beta-cells. In words: Islet beta-cell (insulin-positive) area and function in STZ-treated mice, immunohistochemistry. The class given is in vivo, mouse (male ICR). The conditions noted are these: gavage daily; for Beta-cell area: peptide II 400 mg/kg (n = 7) or sitagliptin 4 mg/kg (n = 6), day 57, insulin-positive area per islet area. The procedure:
as §1, with “pancreases” for “levels of HbA1c”, “resected immediately after the mice were sacrificed and fixed in 4% (w/v) formaldehyde. The immunohistochemistry procedures were performed according to Y. Takeda et al.. The stained sections were observed by an inverted fluorescence microscopy (NIKON ECLIPSE TI-SR; Nikon Corporation, Tokyo, Japan), and digital images were collected” for “measured”, “Nikon imaging system (NIKON DS-U3).” for “an automatic analyzer MQ-2000pt produced by Medconn Medical Technology Co. (Shanghai, China). Plasma insulin, glucagon, GLP-1, and DPP-IV concentrations were measured using a mouse ELISA kit (Shanghai Lengton Bioscience Co., Ltd., Shanghai, China).”

The test system of another assay is pancreatic alpha-cells. The assay is described as follows: Islet alpha-cell (glucagon-positive) area in STZ-treated mice, immunohistochemistry. The format is in vivo, mouse (male ICR). Conditions: gavage daily; for Alpha-cell area / proliferation: peptide II 400 mg/kg (n = 7) or sitagliptin 4 mg/kg (n = 6), day 57, vs STZ control. The method, then:
as §1, with “pancreases” for “levels of HbA1c”, “resected immediately after the mice were sacrificed and fixed in 4% (w/v) formaldehyde. The immunohistochemistry procedures were performed according to Y. Takeda et al.. The stained sections were observed by an inverted fluorescence microscopy (NIKON ECLIPSE TI-SR; Nikon Corporation, Tokyo, Japan), and digital images were collected” for “measured”, “Nikon imaging system (NIKON DS-U3).” for “an automatic analyzer MQ-2000pt produced by Medconn Medical Technology Co. (Shanghai, China). Plasma insulin, glucagon, GLP-1, and DPP-IV concentrations were measured using a mouse ELISA kit (Shanghai Lengton Bioscience Co., Ltd., Shanghai, China).”

Assay [2] is described as follows: HbA1c in STZ-induced hyperglycemic mice. The format is in vivo, mouse (male ICR). Conditions: gavage daily, 57 days. The procedure:
as §1

Assay [3] in a line: Plasma glucagon in STZ-induced hyperglycemic mice. Conditions: peptide II 400 mg/kg or sitagliptin 4 mg/kg, gavage daily, day 57, vs STZ control. The class given is in vivo, mouse (male ICR). The method, then: as §1
Assay [4] in a line: Plasma insulin in STZ-induced hyperglycemic mice. The class given is in vivo, mouse (male ICR). Conditions: for Blood insulin level: peptide II 400 mg/kg (n = 7) or sitagliptin 4 mg/kg (n = 6), mouse ELISA, STZ control 9.79 ± 3.62 mU/L, mean ± SD. The procedure: as §1
Assay [5] concerns the target T1, DPP-IV (Homo sapiens, UniProt P27487).
T1 construct: purchased Sigma-Aldrich D4943-1VL; host or cells: baculovirus-infected Sf9 insect cells
The assay is described as follows: Enzyme kinetics, Lineweaver-Burk plot, mode of inhibition. The class given is biochemical. Conditions: peptide II 0, 1.02 and 2.04 mM; Gly-Pro pNA 0.29-4.64 mM; Tris-HCl pH 7.6, 37 °C, 60 min, 405 nm. The method, then: The initial rate of hydrolysis of the substrate Gly-Pro p-nitroanilide by DPP-IV was measured using substrate concentrations of 0.29, 0.58, 1.16, 2.32, and 4.64 mM (final assay concentrations) in the absence (100 mM Tris-HCl buffer, pH 7.6) and presence of different concentrations of the peptide II (1.02 and 2.04 mM, respectively). The substrate (50 μL), with or without an inhibitor (50 μL), was pre-incubated at 37 °C for 15 min, and the reaction was started by the addition of 100 μL of the DPP-IV enzyme (final concentration: 1.9 U/L). The absorbance of the released p-nitroanilide was monitored at 37 °C and 405 nm for 60 min using a microplate reader (Synergy H1, BioTek Instruments Inc.). Lineweaver–Burk plots of DPP-IV activity in the absence and presence of peptide II were created to show the modes of inhibition.

The target in assay [6] is T1, DPP-IV. The assay is described as follows: DPP-IV inhibitory assay (Gly-Pro p-nitroanilide). The class given is biochemical. The conditions noted are these: n = 3; for DPP-IV inhibition, comparison among peptides I-IV: 62.5-1500 μg/mL. From the text:
The enzyme, human recombinant DPP-IV (Lot: D4943-1VL), expressed in baculovirus-infected S/9 cells, the substrate, Gly-Pro p-nitroanilide (Gly-Pro pNA; Lot: G0513), and streptozotocin (STZ; Lot: V900890) were purchased from Sigma-Aldrich (St. Louis, MO, USA). […] Other reagents, such as Folin–Ciocalteu (Lot: 73104861), gallic acid (Lot: XW01499171), and Coomassie Blue R-250 (Lot: 71011381) were purchased from Sinopharm Chemical Reagent Co., Ltd. (Shanghai, China). Lapsang souchon (LS), a typical Chinese black tea, was obtained from a tea market in Hangzhou.
The DPP-IV inhibitory activities of the substance after ultrafiltration and the peptides identified (synthesized by Chinese Peptide Company, Hangzhou, China; purity of 96–97%) were evaluated. The DPP-IV inhibition assay was performed as described by Velarde-Salcedo et al., with slight modifications. The assay was performed in 96-well microplates, and 100 μL of enzyme (final concentration 1.9 U/L) was preincubated with the samples (the concentrated ultra-filtrate mentioned above and the synthesized peptide, with concentrations from 62.5–1500 μg/mL) at 37 °C for 15 min prior to the initiation of the reaction, by adding 50 μL of Gly-Pro p-nitroanilide (final concentration 0.29 mM). The final volume of the reaction system was 200 μL, and the reaction was conducted in 100 mM Tris-HCl buffer (pH 7.6). The absorbance was obtained at 405 nm in a microplate reader (Synergy H1, BioTek Instruments Inc., Winooski, VT, USA), after incubation at 37 °C for 1 h.

“Also recorded” adds a separate entry of the source.

T1 sequence (P27487 whole entry): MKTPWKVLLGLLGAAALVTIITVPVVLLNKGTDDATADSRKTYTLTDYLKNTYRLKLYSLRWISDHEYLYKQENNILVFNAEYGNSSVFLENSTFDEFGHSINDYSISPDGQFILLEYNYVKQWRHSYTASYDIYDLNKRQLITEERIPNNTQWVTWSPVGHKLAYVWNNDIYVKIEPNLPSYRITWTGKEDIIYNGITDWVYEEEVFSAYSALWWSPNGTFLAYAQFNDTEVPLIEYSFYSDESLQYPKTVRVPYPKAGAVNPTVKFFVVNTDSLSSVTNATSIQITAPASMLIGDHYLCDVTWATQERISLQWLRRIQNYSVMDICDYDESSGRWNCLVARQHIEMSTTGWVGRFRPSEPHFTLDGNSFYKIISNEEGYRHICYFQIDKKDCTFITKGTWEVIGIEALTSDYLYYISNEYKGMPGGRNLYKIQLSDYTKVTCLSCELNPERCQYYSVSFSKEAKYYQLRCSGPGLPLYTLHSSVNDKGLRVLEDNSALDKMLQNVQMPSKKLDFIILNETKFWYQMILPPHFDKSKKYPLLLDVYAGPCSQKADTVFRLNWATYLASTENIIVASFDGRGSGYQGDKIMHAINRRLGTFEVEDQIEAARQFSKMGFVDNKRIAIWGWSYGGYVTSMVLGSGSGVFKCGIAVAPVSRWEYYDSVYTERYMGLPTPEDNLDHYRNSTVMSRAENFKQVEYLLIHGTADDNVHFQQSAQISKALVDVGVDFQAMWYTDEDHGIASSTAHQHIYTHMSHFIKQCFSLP

With `N[C@@H](CC(=O)N1CCn2c(nnc2C(F)(F)F)C1)Cc1cc(F)c(F)cc1F` [sitagliptin, reference compound], in assay [1], the “GLP-1 concentration vs STZ control, significance” value is reported as “without any significant difference compared with the STZ control”; the “GLP-1 concentration in blood” value is 12.57 ± 3.38 pmol/L; the “Increase in GLP-1 concentration vs STZ control” value stood at 2.7 pmol/L. Moreover, the “Beta-cell area” value in the assay with pancreatic beta-cells is given as “not obvious”. The “Alpha-cell area / proliferation” value in the assay on pancreatic alpha-cells is reported as “suppressed”. For the same compound, the “Decrease of alpha-cell area vs STZ-treated mice” value with pancreatic alpha-cells (sitagliptin 4 mg/kg, day 57, glucagon-positive area per islet area, n = 6) is reported as 37.8%. In addition, in assay [2] (sitagliptin 4 mg/kg, n = 6, STZ control 7.30 ± 0.70%, mean ± SD), the HbA1c level is 5.98 ± 1.63%. Moreover, in assay [3], the “Plasma glucagon levels” value is listed as “no amelioration of the glucagon levels”. The compound further registered a Blood insulin level in assay [4] (gavage daily, day 57) of 27.35 ± 5.65 mU/L.

As for AGFAGDDAPR [Peptide II], the “Mode of DPP-IV inhibition” value on DPP-IV [5] is “competitive inhibitory mode”. For the same compound, in assay [1], the “GLP-1 concentration vs STZ control, significance” value was “significantly higher than that in STZ control”; the “GLP-1 concentration in blood” value was found to be 19.22 ± 6.79 pmol/L; the “Increase in GLP-1 concentration vs STZ control” value is 9.3 pmol/L. Also, the “Beta-cell area” value in the assay with pancreatic beta-cells is “not obvious”. For the same compound, the “Beta-cell proliferation / function” value with pancreatic beta-cells (peptide II 400 mg/kg, 57 days) was “improved function of pancreatic beta-cells; also recorded: only slight proliferation”. In addition, the “Alpha-cell area / proliferation” value in the assay on pancreatic alpha-cells was “suppressed proliferation of pancreatic alpha-cells; also recorded: lower than that in the STZ control group, but not significantly”. The “HbA1c level vs STZ control” value in assay [2] (peptide II 400 mg/kg, n = 7) is reported as “did not show a significant difference in HbA1c levels compared to STZ control animals”. The “DPP-IV enzyme activity inhibited” value on DPP-IV [6] (1000 μg/mL synthesized peptide, Tris-HCl pH 7.6, 37 °C, preincubation 15 min, 1 h, 405 nm) is approximately 50%. Further, the “DPP-IV inhibition, comparison among peptides I-IV” value on DPP-IV [6] was “much higher inhibitory activity at both low and high concentrations; also recorded: the greatest DPP-IV inhibitory activity”. In addition, in assay [3], the “Plasma glucagon levels” value is recorded as “no amelioration of the glucagon levels”. This compound also registered a Blood insulin level in assay [4] (gavage daily, day 57) of 42.30 ± 12.64 mU/L. Moreover, in assay [4] (peptide II 400 mg/kg or sitagliptin 4 mg/kg, gavage daily, 57 days), the “Increase of plasma insulin level vs STZ control” value is on record as 4.3 fold. The “Insulin improvement compared with sitagliptin” value in assay [4] (peptide II 400 mg/kg vs sitagliptin 4 mg/kg, day 57) was “improved the insulin levels more effectively than sitagliptin”.

Consider IDESLR [Peptide III], for which the “DPP-IV inhibition” value is reported as “the lowest activity” on DPP-IV [6] (1500 μg/mL, compared among peptides I-IV) and “almost no inhibition” on DPP-IV [6] (concentration below 1000 μg/mL).

As to IQDKEGIPPDQQR [IV], in the assay with DPP-IV [6], the “DPP-IV inhibition, comparison among peptides I-IV” value is on record as “surpassed by peptide II with increasing concentration”.

As to QTDEYGNPPR [Peptide I], the “DPP-IV inhibition, comparison among peptides I-IV” value on DPP-IV [6] is “lower than peptide IV, but higher than peptide III”.
